Where “and” joins values, the source holds several entries; their conditions need not be identical. Identical values can stand only once.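 Dose response: 5 concentrations. Exposure: 48 h. Format: 96-well plates. Endpoint: linear interpolation; highest concentration if not reached. At the GI50, growth is halved. At the TGI there is no net growth.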
Experiments:
Test in all cases: growth of human tumour cells (NCI), 48 h
[1] = tested on: CCRF-CEM leukemia
[2] = tested on: DU-145 prostate
[3] = tested on: HCC-2998 colon
[4] = tested on: IGROV1 ovarian
[5] = tested on: KM12 colon
[6] = tested on: M14 melanoma
[7] = tested on: MALME-3M melanoma
[8] = tested on: MOLT-4 leukemia
[9] = tested on: SF-295 CNS
[10] = tested on: SK-OV-3 ovarian

Row | Compound | GI50 [1] | TGI [1] [µM] | GI50 [2] | TGI [2] | GI50 [3] [µM] | TGI [3] [µM] | GI50 [4] | TGI [4] | GI50 [5] | TGI [5] | GI50 [6] [µM] | TGI [6] [µM] | GI50 [7] | TGI [7] | GI50 [8] | TGI [8] [µM] | GI50 [9] | TGI [9] | GI50 [10] | TGI [10]
1 | COc1cc(-c2ccc(-[n+]3nc(-c4ccc([N+](=O)[O-])cc4)nn3-c3ccc([N+](=O)[O-])cc3)c(OC)c2)ccc1-[n+]1nc(-c2ccc([N+](=O)[O-])cc2)nn1-c1ccc([N+](=O)[O-])cc1 | 1.08 µM | > 100 | 2.9 µM | 9.29 µM | 9.21 | 29.3 | 0.707 µM | 51.7 µM | 4.04 µM | 21.4 µM | 14.9 | 67.2 | 1.89 µM | 4.47 µM | 2.98 µM | > 82 | 3.07 µM | 16.1 µM | 9.08 µM | 66.3 µM
2 | CC1=Cc2cc3[n-]c(cc4nc(cc5[n-]c(cc1n2)c(C)c5CCC(=O)O)C(CCC(=O)O)=C4C)cc3C.[Cu+2] | > 1 µM and 12.1 µM | > 68.5 | 23.5 µM | 85.1 µM | > 100 | > 100 | > 1 µM and 12.5 µM | > 1 µM and 35.9 µM | > 92.2 µM | > 100 µM | > 79.1 | > 100 | > 1 µM and 7.39 µM | > 1 µM and 18.6 µM | > 1 µM and 46.3 µM | > 88.7 | 51.3 µM | > 96.9 µM | > 1 µM and 18.8 µM | > 1 µM and 41.9 µM
3 | O=S(=O)(NCCNc1cc(-c2cn(-c3ccccc3)nc2-c2cccc(O)c2)ccn1)c1ccc(F)cc1 | 3.28 µM | 17.3 | 3.35 µM | 16.8 µM | 1.98 | 4.19 | 3.21 µM | 19.8 µM | 2.34 µM | 8.26 µM | 2.27 | 6.41 | 1.73 µM | 3.88 µM | 2.23 µM | 5.46 | 1.75 µM | 3.9 µM | 2.85 µM | 12.3 µM
4 | Nc1ccn(C2OC(COP(=O)(O)O)C(O)C2O)c(=O)n1 (configuration not stated) | – | 0.0742 | – | > 25.2 µM | – | > 100 | – | > 100 µM | – | > 100 µM | – | > 44.9 | – | > 100 µM | – | 13.2 | – | > 100 µM | – | > 100 µM
5 | O=C(/C=C/C12c3ccccc3C(c3ccccc31)C1C(=O)NC(=O)C12)c1ccco1 (configuration not stated) | 1.24 µM | 9.57 | 2.98 µM | 11.9 µM | 1.79 | 3.52 | 3.24 µM | 9.73 µM | 2.36 µM | 5.99 µM | 3.1 | 11.2 | 2.35 µM | 6.72 µM | 2.16 µM | 7.63 | 3.33 µM | 11.6 µM | 4.01 µM | 12.8 µM
6 | O=C(CSc1nc2sc3c(c2c(=O)n1-c1ccccc1)CCCCC3)N/N=C/c1ccc(F)cc1 | 3.16 µM | > 100 | 1.24 µM | 4.3 µM | 49.5 | > 100 | 3.32 µM | 19.2 µM | 6 µM | > 100 µM | 5.72 | > 100 | 1.67 µM | 5.86 µM | 9.09 µM | > 100 | 3.8 µM | 14.7 µM | 3.47 µM | 11.8 µM
7 | O=C(/C=C/c1ccc2c(c1)OCO2)c1ccccc1 | 19.1 µM | 81.2 | 10.2 µM | 22.1 µM | 16 | 30.2 | 4.43 µM | 27.7 µM | 3.02 µM | 14 µM | 13.2 | 29.8 | 13.9 µM | 37.9 µM | 8.09 µM | > 100 | 11.5 µM | 28.8 µM | 27.5 µM | 83.1 µM
8 | O=C(CCc1ccc(O)c(O)c1)c1ccc(O)c(O)c1O | – | 47.3 | – | 37.2 µM | – | > 100 | – | > 100 µM | – | 36.2 µM | – | 41.7 | – | > 100 µM | – | 89.5 | – | 36.7 µM | – | > 100 µM
9 | Cc1cc(Nc2ncc(Cl)c(Nc3ccccc3S(=O)(=O)C(C)C)n2)c(OC(C)C)cc1C1CCNCC1 | 1.87 µM | 4.18 | 1.41 µM and 1.53 µM and 1.29 µM | 2.79 µM and 2.88 µM and 2.55 µM | 0.991 | 2.21 | 1.56 µM and 1.12 µM | 3.37 µM and 2.36 µM | 1.49 µM and 0.911 µM | 3.11 µM and 2.1 µM | 1.37 | 2.9 | 0.857 µM and 0.265 µM | 2.25 µM and 1.25 µM | 1.55 µM | 3.7 | 1.43 µM and 1.63 µM | 2.81 µM and 3.16 µM | 2.02 µM and 1.67 µM | 4.39 µM and 3.03 µM
10 | COc1ccc(/C(Cl)=C(\C=O)c2cc(OC)c(OC)c(OC)c2)cc1OC | – | > 100 | – | > 100 µM | – | > 100 | – | > 100 µM | – | 73.8 µM | – | > 100 | – | > 92.6 µM | – | > 100 | – | > 100 µM | – | > 100 µM
11 | COc1cc2c3c(n(CCCn4ccnc4)c(=O)c2cc1OC)-c1ccccc1C3=O | < 0.01 µM | – | < 0.0209 µM | – | 0.0598 | 0.504 | < 0.01 µM | 0.35 µM | 0.126 µM | 5.03 µM | < 0.0171 | 0.116 | 1.06 µM | > 60.8 µM | < 0.01 µM | < 0.0167 | < 0.01 µM | 0.218 µM | 1.13 µM | –
12 | O=C(c1cccs1)c1c(C(F)(F)F)n([O-])c2cc(C(F)(F)F)ccc2[n+]1=O | 0.12 µM | 0.361 | 0.179 µM | 0.326 µM | 0.293 | 0.85 | 0.29 µM | 0.848 µM | 0.183 µM | 0.38 µM | 0.554 | 1.19 | 0.347 µM | 0.772 µM | 0.0757 µM | 0.231 | 0.322 µM | 0.889 µM | 0.758 µM | 1.87 µM
13 | C[C@]12CC[C@H]3[C@@H](CC=C4C[C@@H](O)CC[C@@]43C)[C@@H]1C/C(=C\c1cccc(OCCCn3ccnc3)c1)[C@@H]2O | 13 µM | 68.7 | 14.2 µM | 28.3 µM | 17.8 | 34.1 | 16.8 µM | 33.6 µM | 11.9 µM | 28.7 µM | 13.4 | 35.7 | 15.7 µM | 35.9 µM | 6.55 µM | 32.2 | 6.8 µM | 26.4 µM | 16.2 µM | 32.7 µM
14 | CCSc1nc(=S)[nH]c2[nH]ncc12 | 59 µM | > 100 | > 100 µM | > 100 µM | 59.1 | > 100 | 70.3 µM | > 100 µM | 86.5 µM | > 100 µM | > 100 | > 100 | > 100 µM | > 100 µM | > 100 µM | > 100 | > 100 µM | > 100 µM | 78.9 µM | > 100 µM
15 | COc1cc2c(cc1OCCCCCN1CCN(c3cc(=O)oc4c(C)c(OC)ccc34)CC1)N=C[C@@H]1CCCN1C2=O | < 0.01 µM | 0.106 | < 0.01 µM | 5.36 µM | 0.0111 | 0.0372 | < 0.01 µM | 0.0251 µM | < 0.0169 µM | 0.0965 µM | 0.0101 | 0.0225 | 0.0182 µM | 0.0531 µM | < 0.01 µM | 0.0106 | < 0.0139 µM | 2.42 µM | 0.0435 µM | 12.8 µM
16 | Cn1c(Cc2ccccc2)nc2cc3ccccc3cc21 | 15 µM | 37.6 | 26.4 µM | 66.7 µM | 22.8 | 49.9 | 25.5 µM | > 100 µM | 23.9 µM | > 100 µM | 26.4 | 64.3 | 20.7 µM | 50.6 µM | 32.6 µM | > 100 | 25.5 µM | 75.6 µM | 49.6 µM | > 100 µM
17 | O=C1C=CC(=O)N1c1ccc2c(c1)Cc1cc(NC(=O)C(F)(F)F)ccc1-2 | – | 16.9 | – | 30.5 µM | – | > 58.9 | – | 32.3 µM | – | 40.6 µM | – | 44 | – | 40.1 µM | – | > 100 | – | > 100 µM | – | > 100 µM
18 | C[C@@H](Oc1cc(-c2cnn(C3CC4(CCNCC4)C3)c2)cnc1N)c1c(F)ccc(Cl)c1Cl | 1.31 µM | 6.31 | 2.27 µM | 11.5 µM | 1.42 | 3.1 | 2.23 µM | 7.91 µM | 0.0399 µM | 1.39 µM | 1.15 | 2.61 | 1.29 µM | 3.02 µM | 1.29 µM | 5.82 | 0.612 µM | 2.43 µM | 2.43 µM | 6.75 µM
19 | CN(C)c1ccc2[nH]c(O)c(C=Nc3ccc(S(N)(=O)=O)cc3)c2c1 | 17.9 µM | > 25 | > 25 µM | > 25 µM | > 25 | > 25 | > 25 µM | > 25 µM | 1.15 µM | > 25 µM | > 25 | > 25 | > 25 µM | > 25 µM | > 25 µM | > 25 | > 25 µM | > 25 µM | > 25 µM | > 25 µM
20 | COc1cc(N)ccc1Nc1c2ccccc2nc2ccccc12 | 3.73 µM | > 100 | 3.79 µM | 14.8 µM | 15.3 | 30.3 | 10.2 µM | > 59.4 µM | 7.56 µM | 20.5 µM | 16.5 | 36.2 | 14.6 µM | 35.1 µM | 2.21 µM | > 28.5 | 12 µM | 30.1 µM | 12.5 µM | 29.4 µM
